Among the data in US20060241297A1, “Pyridinylamino-pyrimidine derivatives as protein kinase inhibitors” (Cyclacel Limited, priority 2003, published 2006) are Ki and IC50 values, retold here.

The target of experiment [1] is CDK1/cyclin B (Homo sapiens, UniProt P06493). Description: Kinase assay, incorporation of radioactive phosphate from ATP. Type of experiment: biochemical. The settings on record: 100 μM ATP, 30° C.; read-out: Kinase inhibition Ki CDK1/cyclin B. The procedure:
(§1) The compounds from the examples above were investigated for their ability to inhibit the enzymatic activity of various protein kinases. This was achieved by measurement of incorporation of radioactive phosphate from ATP into appropriate polypeptide substrates. Recombinant protein kinases and kinase complexes were produced or obtained commercially. Assays were performed using 96-well plates and appropriate assay buffers (typically 25 mM β-glycerophosphate, 20 mM MOPS, 5 mM EGTA, 1 mM DTT, 1 mM […], pH 7.4), into which were added 2-4 μg of active enzyme with appropriate substrates. The reactions were initiated by addition of Mg/ATP mix (15 mM MgCl2+100 μM ATP with 30-50 kBq per well of [γ-^32P]-ATP) and mixtures incubated as required at 30° C. Reactions were stopped on ice, followed by filtration through p81 filterplates or GF/C filterplates (Whatman Polyfiltronics, Kent, UK). After washing 3 times with 75 mM aq orthophosphoric acid, plates were dried, scintillant added and incorporated radioactivity measured in a scintillation counter (TopCount, Packard Instruments, Pangboume, Berks, UK). Compounds for kinase assay were made up as 10 mM stocks in DMSO and diluted into 10% DMSO in assay buffer. Data was analysed using curve-fitting software (GraphPad Prism version 3.00 for Windows, GraphPad Software, San Diego Calif. USA) to determine IC50 values (concentration of test compound which inhibits kinase activity by 50%.).

For experiment [2], the target named is CDK2/cyclin A (Homo sapiens, UniProt P24941). Described as above. The class given is biochemical. The settings on record: 100 μM ATP, 30° C.; read-out: Kinase inhibition Ki CDK2/cyclin A. The procedure:
as §1

The target of experiment [3] is CDK2/cyclin E (Homo sapiens, UniProt P24941). Described as above. Type of experiment: biochemical. The settings on record: 100 μM ATP, 30° C.; read-out: Kinase inhibition Ki CDK2/cyclin E. The procedure:
as §1

Experiment [4] has as its target CDK4/cyclin D1 (Homo sapiens, UniProt P11802). The description is as above. Type of experiment: biochemical. The settings on record: 100 μM ATP, 30° C.; read-out: Kinase inhibition Ki CDK4/cyclin D1. The procedure: as §1
Experiment [5] concerns the target CDK7/cyclin H (Homo sapiens, UniProt P50613). The experiment is described as above. The class given is biochemical. The settings on record: 100 μM ATP, 30° C.; read-out: Kinase inhibition Ki CDK7/cyclin H. The procedure: as §1
Experiment [6] addresses CDK9/cyclin T1 (Homo sapiens, UniProt P50750). The experiment is described as above. The settings on record: 100 μM ATP, 30° C.; read-out: Kinase inhibition Ki CDK9/cyclin T1. Type of experiment: biochemical. The procedure:
as §1

In experiment [7] the target is GSK3β (Homo sapiens, UniProt P49841). Described as above. Type of experiment: biochemical. The settings on record: 100 μM ATP, 30° C.; read-out: Kinase inhibition Ki GSK3β. The procedure: as §1
GSK3β, sequence (P49841 whole entry): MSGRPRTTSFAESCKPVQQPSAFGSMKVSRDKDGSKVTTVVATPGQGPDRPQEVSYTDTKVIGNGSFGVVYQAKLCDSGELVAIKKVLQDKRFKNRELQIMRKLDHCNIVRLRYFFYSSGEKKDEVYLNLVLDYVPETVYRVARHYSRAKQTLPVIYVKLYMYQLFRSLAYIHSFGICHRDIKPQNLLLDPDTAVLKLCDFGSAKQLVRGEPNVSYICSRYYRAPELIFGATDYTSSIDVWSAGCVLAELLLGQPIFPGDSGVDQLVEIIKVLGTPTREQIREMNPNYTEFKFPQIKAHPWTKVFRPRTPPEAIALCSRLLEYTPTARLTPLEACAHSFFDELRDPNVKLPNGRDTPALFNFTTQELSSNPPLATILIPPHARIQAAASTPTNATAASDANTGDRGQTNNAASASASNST
For experiment [8], the system named is A549. Nature of the experiment: 72-h MTT cytotoxicity assay. The settings on record: Homo sapiens. The class given is cell-based. How it is done: (§2) The compounds from the examples above were subjected to a standard cellular proliferation assay using human tumour cell lines obtained from the ATCC (American Type Culture Collection, 10801 University Boulevard, Manessas, Va. 20110-2209, USA). Standard 72-h MTT (thiazolyl blue; 3-[4,5-dimethylthiazol-2-yl]-2,5-diphenyltetrazolium bromide) assays were performed. In short: cells were seeded into 96-well plates according to doubling time and incubated overnight at 37° C. Test compounds were made up in DMSO and a 1/3 dilution series prepared in 100 μL cell media, added to cells (in triplicates) and incubated for 72 ho at 37° C. MTT was made up as a stock of 5 mg/mL in cell media and filter-sterilised. Media was removed from cells followed by a wash with 200 μL PBS. MTT solution was then added at 20 μL per well and incubated in the dark at 37° C. for 4 h. MTT solution was removed and cells again washed with 200 μL PBS. MTT dye was solubilised with 200 μL per well of DMSO with agitation. Absorbance was read at 540 nm and data analysed using curve-fitting software (GraphPad Prism version 3.00 for Windows, GraphPad Software, San Diego Calif. USA) to determine IC50 values (concentration of test compound which inhibits cell growth by 50%). Various modifications and variations of the described aspects of the invention will be apparent to those skilled in the art without departing from the scope and spirit of the invention. Although the invention has been described in connection with specific preferred embodiments, it should be understood that the invention as claimed should not be unduly limited to such specific embodiments. Indeed, various modifications of the described modes of carrying out the invention which are obvious to those skilled in the relevant fields are intended to be within the scope of the following claims.
(Tetrazolium dyes change colour on reduction, which living cells bring about.)

Experiment [9] concerns HT29. Nature of the experiment: 72-h MTT cytotoxicity assay. The class given is cell-based. The settings on record: Homo sapiens, HT-29. The procedure:
as §2

In experiment [10] the test system is Saos-2. Nature of the experiment: 72-h MTT cytotoxicity assay. Type of experiment: cell-based. The settings on record: Homo sapiens. How it is done:
as §2

Experiment [11] deals with transformed human cell lines (A549, HT29, Saos-2). Nature of the experiment: 72-h MTT cytotoxicity assay, average over cell lines. Type of experiment: cell-based. The procedure:
as §2

Where [12] appears, read: average of A549, HT29, Saos-2, read-out: 72-h MTT IC50 Average.
[13] abbreviates: in vitro, read-out: IC50 value (average) against one or more transformed human cell lines, 72-h MTT cytotoxicity assay.

Molecules are shown by their SMILES. Read-outs that look alike come from different tables or passages of the source. Bounds are passed on as bounds.

CDK7/cyclin H, sequence (P50613 whole entry): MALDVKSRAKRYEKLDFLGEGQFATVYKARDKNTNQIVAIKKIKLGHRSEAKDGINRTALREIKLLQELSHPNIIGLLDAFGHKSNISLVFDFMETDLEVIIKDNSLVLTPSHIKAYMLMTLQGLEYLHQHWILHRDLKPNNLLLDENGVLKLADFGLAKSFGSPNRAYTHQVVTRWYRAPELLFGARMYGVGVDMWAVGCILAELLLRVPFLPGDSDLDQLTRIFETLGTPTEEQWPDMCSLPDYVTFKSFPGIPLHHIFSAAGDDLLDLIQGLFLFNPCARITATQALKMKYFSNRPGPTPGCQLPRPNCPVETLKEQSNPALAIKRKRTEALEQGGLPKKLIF
CDK7/cyclin H, sequence (P51946 whole entry partner): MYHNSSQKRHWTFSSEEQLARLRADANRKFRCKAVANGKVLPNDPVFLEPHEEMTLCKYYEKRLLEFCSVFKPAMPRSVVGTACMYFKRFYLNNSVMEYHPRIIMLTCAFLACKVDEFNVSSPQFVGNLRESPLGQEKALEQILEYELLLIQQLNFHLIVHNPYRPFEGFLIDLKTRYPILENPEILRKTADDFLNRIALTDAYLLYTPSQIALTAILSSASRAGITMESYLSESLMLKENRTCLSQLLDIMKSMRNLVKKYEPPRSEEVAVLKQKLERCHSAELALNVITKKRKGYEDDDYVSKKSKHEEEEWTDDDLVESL
CDK4/cyclin D1, sequence (P11802 whole entry): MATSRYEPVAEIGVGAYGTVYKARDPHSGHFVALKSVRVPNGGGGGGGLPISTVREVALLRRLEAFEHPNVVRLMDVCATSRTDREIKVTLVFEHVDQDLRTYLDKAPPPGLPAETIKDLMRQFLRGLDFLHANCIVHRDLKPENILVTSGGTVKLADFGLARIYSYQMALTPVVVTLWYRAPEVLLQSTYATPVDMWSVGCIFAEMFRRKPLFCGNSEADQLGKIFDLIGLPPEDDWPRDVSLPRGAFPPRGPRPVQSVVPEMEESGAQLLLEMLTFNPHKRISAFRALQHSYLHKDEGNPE
CDK4/cyclin D1, sequence (P24385 whole entry partner): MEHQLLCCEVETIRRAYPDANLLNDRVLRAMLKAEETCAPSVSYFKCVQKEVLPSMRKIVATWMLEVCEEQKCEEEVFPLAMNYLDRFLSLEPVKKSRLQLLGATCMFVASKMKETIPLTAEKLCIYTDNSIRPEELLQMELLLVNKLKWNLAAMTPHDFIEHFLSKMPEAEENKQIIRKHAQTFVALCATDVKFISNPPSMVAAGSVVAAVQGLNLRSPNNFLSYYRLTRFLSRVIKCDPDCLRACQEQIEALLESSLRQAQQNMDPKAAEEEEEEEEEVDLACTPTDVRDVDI
CDK9/cyclin T1, sequence (P50750 whole entry): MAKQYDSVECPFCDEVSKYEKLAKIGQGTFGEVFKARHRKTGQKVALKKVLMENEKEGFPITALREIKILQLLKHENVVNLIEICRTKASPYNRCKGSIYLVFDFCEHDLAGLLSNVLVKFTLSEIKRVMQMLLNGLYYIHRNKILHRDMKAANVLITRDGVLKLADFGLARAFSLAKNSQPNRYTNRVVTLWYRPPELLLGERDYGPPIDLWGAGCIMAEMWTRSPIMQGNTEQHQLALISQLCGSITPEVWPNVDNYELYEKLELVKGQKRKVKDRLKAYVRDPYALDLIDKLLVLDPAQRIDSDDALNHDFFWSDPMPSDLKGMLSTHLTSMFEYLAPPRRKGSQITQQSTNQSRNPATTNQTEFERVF
CDK9/cyclin T1, sequence (O60563 whole entry partner): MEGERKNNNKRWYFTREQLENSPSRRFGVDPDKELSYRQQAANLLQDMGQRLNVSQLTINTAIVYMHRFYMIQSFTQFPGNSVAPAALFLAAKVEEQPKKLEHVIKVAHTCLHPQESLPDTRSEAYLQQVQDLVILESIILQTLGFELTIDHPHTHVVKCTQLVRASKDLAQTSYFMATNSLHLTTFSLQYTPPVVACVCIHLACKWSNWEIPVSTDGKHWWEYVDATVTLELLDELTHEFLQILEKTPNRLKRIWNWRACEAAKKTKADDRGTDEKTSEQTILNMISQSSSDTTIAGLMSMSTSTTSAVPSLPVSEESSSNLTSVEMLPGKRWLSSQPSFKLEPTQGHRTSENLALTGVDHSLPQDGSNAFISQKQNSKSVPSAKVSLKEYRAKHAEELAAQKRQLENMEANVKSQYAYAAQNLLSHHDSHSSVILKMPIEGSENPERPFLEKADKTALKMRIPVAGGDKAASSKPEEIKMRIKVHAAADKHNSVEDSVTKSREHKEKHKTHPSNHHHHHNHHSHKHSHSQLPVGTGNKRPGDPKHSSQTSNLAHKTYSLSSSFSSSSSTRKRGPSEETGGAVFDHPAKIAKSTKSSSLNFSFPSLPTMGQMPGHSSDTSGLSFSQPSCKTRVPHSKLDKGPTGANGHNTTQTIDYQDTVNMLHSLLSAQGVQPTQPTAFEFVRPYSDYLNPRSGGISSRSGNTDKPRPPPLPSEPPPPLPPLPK
CDK1/cyclin B, sequence (P06493 whole entry): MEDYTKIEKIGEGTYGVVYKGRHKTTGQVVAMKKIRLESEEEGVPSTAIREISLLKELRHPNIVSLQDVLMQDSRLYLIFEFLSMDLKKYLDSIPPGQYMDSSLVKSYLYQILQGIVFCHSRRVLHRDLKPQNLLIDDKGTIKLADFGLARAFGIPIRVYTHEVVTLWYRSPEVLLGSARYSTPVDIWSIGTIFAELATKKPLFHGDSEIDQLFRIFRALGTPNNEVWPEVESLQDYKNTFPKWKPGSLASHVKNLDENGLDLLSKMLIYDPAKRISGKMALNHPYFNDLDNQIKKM
CDK1/cyclin B, sequence (P14635 whole entry partner): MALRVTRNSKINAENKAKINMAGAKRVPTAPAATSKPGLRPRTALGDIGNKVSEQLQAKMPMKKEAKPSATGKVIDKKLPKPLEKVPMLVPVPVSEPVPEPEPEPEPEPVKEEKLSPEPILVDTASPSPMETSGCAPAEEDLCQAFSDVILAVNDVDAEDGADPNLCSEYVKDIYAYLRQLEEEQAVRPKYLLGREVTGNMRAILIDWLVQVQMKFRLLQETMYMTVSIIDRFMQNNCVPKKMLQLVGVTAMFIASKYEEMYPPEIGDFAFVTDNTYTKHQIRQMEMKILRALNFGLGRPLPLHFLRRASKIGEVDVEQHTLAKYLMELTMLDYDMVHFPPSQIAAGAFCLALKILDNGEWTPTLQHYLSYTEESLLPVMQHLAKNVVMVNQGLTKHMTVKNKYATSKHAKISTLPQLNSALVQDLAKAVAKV

For orientation: IC50 means the concentration needed to halve the response being measured. Regarding `CNc1nc(C)c(-c2ccnc(Nc3ccc(OC)nc3)n2)s1` [Compound 8, (6-Methoxy-pyridin-3-yl)-[4-(4-methyl-2-methylamino-thiazol-5-yl)-pyrimidin-2-yl]-amine], the Ki in experiment [1] was found to be 840 nM; in experiment [2], 270 nM; in experiment [3] it was 30 nM; in experiment [4], 40 nM; in experiment [5] it was 430 nM; in experiment [6], 6 nM. Moreover, in experiment [7], the Ki came to 50 nM. For the same compound, the IC50 amounted to 1400 nM in experiment [8], 2000 nM in [9], 1700 nM in experiment [10] and 1700 ± 300 nM in [11] (setting [12]).

For the compound `Cc1c(-c2ccnc(Nc3ccc(Cl)nc3)n2)sc(=O)n1C` [Compound 4, 5-[2-(6-chloro-pyridin-3-ylamino)-pyrimidin-4-yl]-3,4-dimethyl-3H-thiazol-2-one], the Ki in experiment [1] turned out to be 1500 nM; in experiment [3], 140 nM; in experiment [6], 21 nM; in [7] it was 11 nM. Besides, the IC50 was found to be 1100 nM in experiment [8], 600 nM in experiment [9], 1700 nM in experiment [10] and 1100 ± 600 nM in experiment [11] (setting [12]).

`Cc1nc(N)sc1-c1ccnc(Nc2ccc(Cl)nc2)n1` [Compound 7, [4-(2-Amino-4-methyl-thiazol-5-yl)-pyrimidin-2-yl]-(6-chloro-pyridin-3-yl)-amine]: the Ki in experiment [1] is 2000 nM; in experiment [2], 860 nM; in experiment [3] it was 50 nM; in experiment [4], 70 nM; in [5], 1500 nM; in experiment [6], 5 nM. Further, the Ki in experiment [7] was 160 nM. Moreover, the IC50 is 3300 nM in experiment [8]; 3400 nM in experiment [9]; 3100 nM in [10]; 3200 ± 100 nM in experiment [11] (setting [12]); less than 10000 nM in [11] (setting [13]).

Turning to `CNc1nc(C)c(-c2ccnc(Nc3ccc(N4CCN(C)CC4)nc3)n2)s1` [Compound 15, [4-(4-Methyl-2-methylamino-thiazol-5-yl)-pyrimidin-2-yl]-[6-(4-methyl-piperazin-1-yl)-pyridin-3-yl]-amine], the Ki in [2] is 1500 nM; in [4], 80 nM; in [5], 280 nM; in experiment [6] it was 80 nM; in [7], 2900 nM.

For the compound `CCn1c(C)c(-c2ccnc(Nc3ccc(OC)nc3)n2)sc1=O` [Compound 11, 3-Ethyl-5-[2-(6-methoxy-pyridin-3-ylamino)-pyrimidin-4-yl]-4-methyl-3H-thiazol-2-one], the Ki in [1] is 3400 nM; in experiment [2], 370 nM; in [3] it was 110 nM; in [4] it was 1200 nM; in experiment [5] it was 230 nM; in experiment [6], 27 nM. The Ki in experiment [7] turned out to be 13 nM.

In the case of `COCCNc1nc(C)c(-c2ccnc(Nc3ccc(OC)nc3)n2)s1` [Compound 13, {4-[2-(2-Methoxy-ethylamino)-4-methyl-thiazol-5-yl]-pyrimidin-2-yl}-(6-methoxy-pyridin-3-yl)-amine], the Ki in experiment [1] turned out to be 2300 nM; in [2] it was 950 nM; in experiment [3], 250 nM; in experiment [4], 250 nM; in experiment [5], 650 nM; in experiment [6], 120 nM. Besides, the Ki in experiment [7] is 100 nM.

In the case of `COc1ccc(Nc2nccc(-c3sc(N(C)C)nc3C)n2)cn1` [Compound 10, [4-(2-Dimethylamino-4-methyl-thiazol-5-yl)-pyrimidin-2-yl]-(6-methoxy-pyridin-3-yl)-amine], the Ki in [1] was found to be 1200 nM; in experiment [2], 330 nM; in experiment [3], 120 nM; in experiment [4] it was 70 nM; in [5] it was 2300 nM; in [6] it was 140 nM. The Ki in [7] amounted to 110 nM. For the same compound, the 50% inhibitory concentration (IC50) in [8] was 2400 nM; in [9], 1700 nM; in experiment [10], 1800 nM; in experiment [11] (setting [12]), 2000 ± 400 nM.

As to `CCNc1nc(C)c(-c2ccnc(Nc3ccc(OC)nc3)n2)s1` [Compound 12, [4-(2-Ethylamino-4-methyl-thiazol-5-yl)-pyrimidin-2-yl]-(6-methoxy-pyridin-3-yl)-amine], the Ki in [1] was determined as 100 nM; in experiment [2], 30 nM; in experiment [3], 50 nM; in [4], 80 nM; in experiment [5], 130 nM; in [6], 90 nM. Besides, the Ki in [7] came to 60 nM. In addition, the IC50 was found to be 1200 nM in experiment [8], 800 nM in experiment [9], 1500 nM in [10] and 1200 ± 400 nM in experiment [11] (setting [12]).

Take `COc1ccc(Nc2nccc(-c3sc(N)nc3C)n2)cn1` [Compound 5, [4-(2-Amino-4-methyl-thiazol-5-yl)-pyrimidin-2-yl]-(6-methoxy-pyridin-3-yl)-amine]: the Ki in [1] turned out to be 5500 nM; in experiment [2] it was 950 nM; in experiment [3], 70 nM; in experiment [4], 60 nM; in experiment [5], 710 nM; in experiment [6], 5 nM. Also, the Ki in experiment [7] stood at 350 nM. Further, the half-maximal inhibitory concentration (IC50) in [8] is 3500 nM; in [9], 4000 nM; in experiment [10], 3100 nM; in [11] (setting [12]) it was 3500 ± 400 nM; in experiment [11] (setting [13]) it was less than 10000 nM.

In the case of `Cc1nc(C)c(-c2ccnc(Nc3cccnc3)n2)s1` [Compound 1, [4-(2,4-Dimethyl-thiazol-5-yl)-pyrimidin-2-yl]-pyridin-3-yl-amine], the figures for the Ki in [3], in experiment [4] and in experiment [6] were 110 nM, 340 nM and 80 nM, respectively. The half-maximal inhibitory concentration (IC50) in [8] was 3200 nM; in experiment [9], 3700 nM; in [10], 3700 nM; in experiment [11] (setting [12]) it was 3600 ± 300 nM; in experiment [11] (setting [13]), less than 10000 nM.

Consider `COc1ccc(Nc2nccc(-c3sc(C)nc3C)n2)cn1` [Compound 6, [4-(2,4-Dimethyl-thiazol-5-yl)-pyrimidin-2-yl]-(6-methoxy-pyridin-3-yl)-amine], for which the Ki worked out at 2800 nM in experiment [1]; 1400 nM in experiment [2]; 130 nM in experiment [3]; 460 nM in experiment [4]; 1400 nM in experiment [5]; 280 nM in experiment [6]. Moreover, the IC50 in [8] was 5100 nM; in [9] it was 1400 nM; in experiment [10] it was 7500 nM; in [11] (setting [12]), 4600 ± 3100 nM; in experiment [11] (setting [13]) it was less than 10000 nM.
